Measurements published in patent US20220009987A9, “HUMAN RESISTIN COMPOSITIONS AND METHODS OF TREATING TLR4-MEDIATED DISEASE AND INFECTION” (THE REGENTS OF THE UNIVERSITY OF CALIFORNIA, priority 2017, published 2022).

Assays:
human PBMCs = assay: Human PBMC functional assay, LPS-induced cytokine secretion (ELISA); type: cell-based; conditions: human PBMC, pre-treatment then LPS 100 ng/mL
Method: (§1) Human PBMCs. Human buffy coat was purchased from Zen-bio. Buffy coat was overlaid on top of Histopaque-1077 and spun at 700g at 25° C. with no brake and PBMCs were recovered from the interphase. PBMCs were plated in 96-well plates and stimulated with mammalian-derived human resistin (1 μg/mL, LifeSpan Biosciences) or hRetn N-peptide (1 μg/mL). After 24 hours, ultrapure LPS (100 ng/mL, Invivogen) was added and supernatants recovered for ELISA at 24 hours. Where indicated, cells were incubated for 4 hours with STAT3 (5, 15-DPP, 50 μM) or TBK1 (BX-795, 1 μM) inhibitors prior to hRetn treatment. For the hRetn competitive binding assay, 1×10^6 cells were incubated with recombinant hRetn (0.5 μg), washed in PBS then incubated with 0.5 μg LPS-biotin (incubations were 30 minutes on ice). Cells were washed in FACS buffer, treated with Fc block, and stained with BV605-conjugated streptavidin and α-human primary antibodies: CD14 (clone M5E2), CD11 b (clone M1/70) and MD2/TLR4 (clone HTA125) purchased from Affymetrix.
Cytokine Quantification. Sandwich ELISAs were performed using capture and biotinylated antibodies for human resistin (Peprotech), IL-10 and TNFα (BD Biosciences) according to manufacturer's instructions. Detection was performed with streptavidin-peroxidase (Jackson ImmunoResearch) and TMB peroxidase substrate (BD Biosciences), followed by addition of 2N H2SO4. Optical density (OD) was captured at 450 nm. Samples were compared to serial-fold dilution of recombinant protein. For Luminex, inflammatory cytokine kits (Affymetrix) were run according to manufacturer's instructions and quantified on Luminex MagPix (Luminex Corp.). For cytokine bead array, cytokine kits from BD Bioscience were run according to manufacturer's instructions on BD LSRII and analyzed using FCAP Array Software.

CD14+CD11b+ monocytes = assay: Competitive resistin/LPS binding assay on human PBMCs (flow cytometry); type: cell-based; conditions: for LPS binding to CD14+CD11b+ monocytes: pre-incubation before LPS-biotin, on ice
Method: as §1

human TLR4 = human TLR4 (Homo sapiens, UniProt O00206); assay: Pull-down assay with His-tagged human TLR4; type: binding; conditions: pre-incubation of His-TLR4 with 500 ng/ml N-peptide, anti-Flag blot
Method: Pull-down Assay. 1 μg/ml protein His-tagged MBP, human TLR4 and human CAP1 were added to nickel-nitrilotriacetic acid-agarose beads (Invitrogen) in binding buffer (50 mM NaH2PO4, 500 mM NaCl, 10 mM Imidazole, pH 8.0) and mixed for 1 hour at 4° C., followed by washing and 1 h incubation at 4° C. with hRetn (E. coli-derived, Peprotech or 293T cell-derived, LifeSpan Biosciences) in binding buffer. Beads were washed in wash buffer (50 mM NaH2PO4, 500 mM NaCl, 20 mM Imidazole, pH 8.0), and complex protein eluted with elution buffer (50 mM NaH2PO4, 500 mM NaCl, 250 mM Imidazole, pH 6.0). His-MBP, His-TLR4 and His-CAP1 were detected by anti-His antibody (Abcam), and hRetn was detected by anti-hRetn antibody (donated by Mitchell Lazar) by Western Blot. For the N-peptide binding experiment, 1 μg/ml His-tagged human TLR4 with 500 ng/ml N-peptide or 10% TFE control was added to the beads in binding buffer and mixed for 30 min at 4° C., followed by co-immunoprecipitation using 1 μg/ml Flag-hRetn (LifeSpan Biosciences), anti-His or anti-Flag (Sigma).

Sequence of human TLR4 (O00206 24-839): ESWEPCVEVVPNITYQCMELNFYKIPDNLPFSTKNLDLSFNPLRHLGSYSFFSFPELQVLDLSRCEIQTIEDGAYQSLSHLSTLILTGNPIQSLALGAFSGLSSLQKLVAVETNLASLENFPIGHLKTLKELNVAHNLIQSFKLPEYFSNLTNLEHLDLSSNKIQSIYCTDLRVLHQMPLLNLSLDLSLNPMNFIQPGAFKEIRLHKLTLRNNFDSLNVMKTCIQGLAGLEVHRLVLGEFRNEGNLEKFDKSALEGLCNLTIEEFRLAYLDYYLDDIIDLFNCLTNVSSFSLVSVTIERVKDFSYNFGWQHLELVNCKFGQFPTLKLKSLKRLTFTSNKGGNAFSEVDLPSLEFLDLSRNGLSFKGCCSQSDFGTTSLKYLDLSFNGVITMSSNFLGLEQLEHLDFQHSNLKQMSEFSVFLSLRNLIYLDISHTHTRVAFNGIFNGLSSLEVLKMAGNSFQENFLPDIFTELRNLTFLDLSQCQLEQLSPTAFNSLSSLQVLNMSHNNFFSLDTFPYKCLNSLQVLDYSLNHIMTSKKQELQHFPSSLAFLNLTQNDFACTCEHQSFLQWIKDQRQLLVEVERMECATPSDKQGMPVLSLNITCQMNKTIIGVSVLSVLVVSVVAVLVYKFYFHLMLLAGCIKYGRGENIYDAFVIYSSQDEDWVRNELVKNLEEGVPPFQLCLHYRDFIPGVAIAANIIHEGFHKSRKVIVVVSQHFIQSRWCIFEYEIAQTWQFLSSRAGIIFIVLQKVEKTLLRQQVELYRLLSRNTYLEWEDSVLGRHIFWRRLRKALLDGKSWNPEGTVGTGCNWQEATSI

Compound	LPS-induced TNFα secretion (human PBMCs)	LPS-promoted surface MD2/TLR4 complex formation (CD14+CD11b+ monocytes; human PBMC, flow cytometry)	LPS binding to CD14+CD11b+ monocytes (CD14+CD11b+ monocytes)	LPS binding to CD14+CD11b+ monocytes (CD14+CD11b+ monocytes; listed as N-pep)	competitive inhibition of Flag-tagged full-length hRetn binding to hTLR4 (human TLR4)	IL-10 expression after LPS (human PBMCs)
hRetn N-peptide: synthesized hRetn N-terminal peptide (1-23 a.a.), SEQ ID NO: 2 (MEEAINERIQEVAGSLIFRAISS) (listed as Homo sapiens)	significantly more efficient at suppressing LPS-induced TNFα than full-length hRetn	abrogated	inhibited LPS binding	abrogated the binding of LPS in human PMBCs similar to full-length hRetn	sufficient to abrogate binding of full-length hRetn	–
O=C(NCCCNc1nc(Nc2cccc(NC(=O)N3CCCC3)c2)ncc1I)c1cccs1 [TBK1 inhibitor, BX-795, reference compound]	significantly reduced LPS-induced TNFα	–	–	–	–	increased IL-10 expression
